Assay results taken from ChEMBL document CHEMBL1125859, “Synthesis and evaluation of antiinflammatory activities of a series of corticosteroid 17 alpha-esters containing a functional group” (J Med Chem, 1991).

Experiments:
[1] = species on record: Mus musculus; test: Anti-inflammatory activity in mouse croton oil ear assay relative to clobetasol propionate; type: functional
[2] = biological target: T1, Glucocorticoid receptor (Rattus norvegicus, UniProt P06536); test: Competitive displacement of [3H]dexamethasone from glucocorticoid receptor of rat liver cytosol
T1 sequence (P06536 whole entry): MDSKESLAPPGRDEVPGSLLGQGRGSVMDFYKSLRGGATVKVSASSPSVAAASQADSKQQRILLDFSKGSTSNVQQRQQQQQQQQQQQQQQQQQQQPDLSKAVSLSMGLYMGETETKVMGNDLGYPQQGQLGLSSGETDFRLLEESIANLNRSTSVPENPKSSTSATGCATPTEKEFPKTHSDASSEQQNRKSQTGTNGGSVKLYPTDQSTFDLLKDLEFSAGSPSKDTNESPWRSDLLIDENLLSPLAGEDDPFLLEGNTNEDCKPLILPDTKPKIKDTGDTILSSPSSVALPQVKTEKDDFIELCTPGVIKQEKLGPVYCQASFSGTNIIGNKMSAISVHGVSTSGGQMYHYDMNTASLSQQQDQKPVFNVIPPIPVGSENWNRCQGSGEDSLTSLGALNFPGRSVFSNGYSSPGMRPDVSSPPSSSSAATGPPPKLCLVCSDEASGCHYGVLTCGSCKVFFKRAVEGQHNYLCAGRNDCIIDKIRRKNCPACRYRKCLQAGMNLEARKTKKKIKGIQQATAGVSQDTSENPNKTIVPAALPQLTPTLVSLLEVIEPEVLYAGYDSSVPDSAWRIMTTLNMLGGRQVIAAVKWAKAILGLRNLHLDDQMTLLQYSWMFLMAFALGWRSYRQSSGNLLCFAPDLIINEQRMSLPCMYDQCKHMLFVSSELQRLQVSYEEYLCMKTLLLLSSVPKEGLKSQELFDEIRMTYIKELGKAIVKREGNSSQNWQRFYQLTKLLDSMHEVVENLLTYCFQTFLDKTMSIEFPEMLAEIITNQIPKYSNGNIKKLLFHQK

[3] = species on record: Rattus norvegicus; test: The thymolytic activity was measured relative to clobetasol propionate (CP=1) in rat granuloma pouch assay system; type: functional
[4] = It is the ratio of topical(edema inhibition) to systemic (thymolysis) activities.; type: functional
[5] = species on record: Rattus norvegicus; test: The thymolytic activity was measured relative to clobetasol propionate (CP=1) in rat granuloma pouch assay system; granuloma inhibition or thymolytic activity was not detected up to 100 ug/pouch; type: functional

Row | IC50 [2] [nM] | Structure (SMILES) | Fold_activity [1] | Thymolysis [3] | Ratio [4] | Thymolysis [5]
1 |  | C[C@H]1CC2C3CCC4=CC(=O)C=CC4(C)[C@@]3(F)[C@@H](O)CC2(C)[C@@]1(OC(=O)CCl)C(=O)CCl (stereo not given in full) | 0.25 |  |  | 
2 |  | COCCC(=O)O[C@]1(C(=O)CCl)[C@@H](C)CC2C3CCC4=CC(=O)C=CC4(C)[C@@]3(F)[C@@H](O)CC21C (stereo not given in full) | 0.38 | 0.05 | 7.6 | 
3 | 3.17 | CCC(=O)O[C@]1(C(=O)CCl)[C@@H](C)C[C@H]2[C@@H]3CCC4=CC(=O)C=C[C@]4(C)[C@@]3(F)[C@@H](O)C[C@@]21C [CLOBETASOL PROPIONATE] | 1 | 1 | 1 | 
4 | > 150 | C[C@H]1CC2C3CCC4=CC(=O)C=CC4(C)[C@@]3(F)[C@@H](O)CC2(C)[C@@]1(OC(=O)CCC(=O)O)C(=O)CCl (stereo not given in full) | <0.01 |  |  | 
5 |  | C[C@H]1CC2C3CCC4=CC(=O)C=CC4(C)[C@@]3(F)[C@@H](O)CC2(C)[C@@]1(OC(=O)CCC#N)C(=O)CCl (stereo not given in full) | 0.07 |  |  | 
6 |  | C[C@H]1CC2C3CCC4=CC(=O)C=CC4(C)[C@@]3(F)[C@@H](O)CC2(C)[C@@]1(OC(=O)CC1CC1)C(=O)CCl (stereo not given in full) | 0.51 | 1.1 | 0.46 | 
7 |  | CCOC(=O)CCC(=O)O[C@]1(C(=O)CCl)[C@@H](C)CC2C3CCC4=CC(=O)C=CC4(C)[C@@]3(F)[C@@H](O)CC21C (stereo not given in full) | 0.56 |  |  | 
8 |  | CC(=O)OCCC(=O)O[C@]1(C(=O)CCl)[C@@H](C)CC2C3CCC4=CC(=O)C=CC4(C)[C@@]3(F)[C@@H](O)CC21C (stereo not given in full) | 0.28 | 0.015 | 18.6 | 
9 |  | C[C@H]1CC2C3CCC4=CC(=O)C=CC4(C)[C@@]3(F)[C@@H](O)CC2(C)[C@@]1(OC(=O)CCCCl)C(=O)CCl (stereo not given in full) | 0.66 | 0.12 | 5.5 | 
10 |  | CCC(=O)OCC(=O)[C@@]1(OC(=O)CC)[C@@H](C)C[C@H]2[C@@H]3CCC4=CC(=O)C=C[C@]4(C)[C@@]3(F)[C@@H](O)C[C@@]21C [BETAMETHASONE DIPROPIONATE] |  | 0.03 |  | 
11 | 12.1 | CC(C)OC(=O)CCC(=O)O[C@]1(C(=O)CCl)[C@@H](C)CC2C3CCC4=CC(=O)C=CC4(C)[C@@]3(F)[C@@H](O)CC21C (stereo not given in full) | 0.11 |  |  | 
12 |  | COC(=O)CCCC(=O)O[C@]1(C(=O)CCl)[C@@H](C)CC2C3CCC4=CC(=O)C=CC4(C)[C@@]3(F)[C@@H](O)CC21C (stereo not given in full) | 0.45 |  |  | 
13 | 10.8 | C[C@H]1CC2C3CCC4=CC(=O)C=CC4(C)[C@@]3(F)[C@@H](O)CC2(C)[C@@]1(OC(=O)CCC(=O)OC(C)(C)C)C(=O)CCl (stereo not given in full) | 0.19 |  |  | 
14 |  | C[C@H]1CC2C3CCC4=CC(=O)C=CC4(C)[C@@]3(F)[C@@H](O)CC2(C)[C@@]1(OC(=O)C1CC1)C(=O)CCl (stereo not given in full) | 0.44 | 1.3 | 0.34 | 
15 |  | COCC(=O)O[C@]1(C(=O)CCl)[C@@H](C)CC2C3CCC4=CC(=O)C=CC4(C)[C@@]3(F)[C@@H](O)CC21C (stereo not given in full) | 0.11 |  |  | 
16 |  | CSCC(=O)O[C@]1(C(=O)CCl)[C@@H](C)CC2C3CCC4=CC(=O)C=CC4(C)[C@@]3(F)[C@@H](O)CC21C (stereo not given in full) | 0.35 | 0.35 | 1 | 

Row | Structure (SMILES) | IC50 [2] [nM] | Fold_activity [1] | Thymolysis [3] | Ratio [4] | Thymolysis [5]
17 | CCOC(=O)CCCC(=O)O[C@]1(C(=O)CCl)[C@@H](C)CC2C3CCC4=CC(=O)C=CC4(C)[C@@]3(F)[C@@H](O)CC21C (stereo not given in full) | 9.68 | 0.68 |  |  | 
18 | COC(=O)CCC(=O)O[C@]1(C(=O)CCl)[C@@H](C)CC2C3CCC4=CC(=O)C=CC4(C)[C@@]3(F)[C@@H](O)CC21C (stereo not given in full) | 5.18 | 1.3 |  | > 130 | < 0.01
